Each structure is given as a SMILES string. Counter-ions that a name gives are not always drawn.

In this test the target is T1, human recombinant ASK1 (Homo sapiens, UniProt Q99683).
T1 sequence (Q99683 1-1374): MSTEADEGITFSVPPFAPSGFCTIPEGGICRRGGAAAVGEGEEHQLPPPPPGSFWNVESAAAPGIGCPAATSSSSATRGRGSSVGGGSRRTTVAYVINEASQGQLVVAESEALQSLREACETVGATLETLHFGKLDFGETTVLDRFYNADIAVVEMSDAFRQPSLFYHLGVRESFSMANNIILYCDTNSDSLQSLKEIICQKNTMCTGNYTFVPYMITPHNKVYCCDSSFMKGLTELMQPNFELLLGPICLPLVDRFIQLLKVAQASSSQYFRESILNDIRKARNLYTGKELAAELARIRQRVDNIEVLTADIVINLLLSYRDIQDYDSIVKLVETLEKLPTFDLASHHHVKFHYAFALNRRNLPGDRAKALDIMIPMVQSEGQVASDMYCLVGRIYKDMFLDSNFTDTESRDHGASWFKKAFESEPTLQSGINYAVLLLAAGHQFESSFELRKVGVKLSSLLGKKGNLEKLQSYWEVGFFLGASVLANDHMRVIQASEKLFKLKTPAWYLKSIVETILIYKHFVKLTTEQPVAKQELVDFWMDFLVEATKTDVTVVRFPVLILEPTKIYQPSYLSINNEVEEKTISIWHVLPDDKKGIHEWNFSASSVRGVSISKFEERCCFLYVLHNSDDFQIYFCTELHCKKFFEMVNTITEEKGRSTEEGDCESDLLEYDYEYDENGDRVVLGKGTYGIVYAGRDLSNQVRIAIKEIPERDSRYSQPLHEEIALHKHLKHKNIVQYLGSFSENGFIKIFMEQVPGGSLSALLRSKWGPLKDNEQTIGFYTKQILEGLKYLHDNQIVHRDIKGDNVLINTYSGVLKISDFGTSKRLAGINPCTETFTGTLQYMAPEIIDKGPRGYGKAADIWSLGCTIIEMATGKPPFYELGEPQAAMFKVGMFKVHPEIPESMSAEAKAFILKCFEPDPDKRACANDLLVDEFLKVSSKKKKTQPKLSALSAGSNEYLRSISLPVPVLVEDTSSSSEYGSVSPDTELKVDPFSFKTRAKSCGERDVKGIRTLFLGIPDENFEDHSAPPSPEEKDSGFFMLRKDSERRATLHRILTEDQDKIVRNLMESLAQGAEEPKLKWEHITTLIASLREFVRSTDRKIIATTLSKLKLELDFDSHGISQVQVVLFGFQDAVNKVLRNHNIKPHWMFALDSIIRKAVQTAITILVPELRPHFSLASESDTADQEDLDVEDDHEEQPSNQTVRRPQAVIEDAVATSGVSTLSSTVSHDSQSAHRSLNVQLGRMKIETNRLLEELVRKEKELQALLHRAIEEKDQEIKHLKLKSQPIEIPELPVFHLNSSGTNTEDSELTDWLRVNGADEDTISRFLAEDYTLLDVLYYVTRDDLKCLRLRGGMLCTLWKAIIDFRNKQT
Briefly: Enzyme inhibition assay (in vitro ASK1 assay), luciferase-based measurement of remaining ATP. The format is biochemical. To be noted: human recombinant ASK1, MBP and ATP as substrates, 180 minutes at 30° C.; triplicates on at least 2 separate occasions. How it is done: Assays were performed in a 384 well plate (Corning, #3654) format, using the human recombinant ASK1 as an enzyme and MBP (myelin basic protein, Upstate/Millipore, #13-104) with ATP as substrates. Assay read out was the measurement of the amount of ATP remaining after stopping the reaction, using a luciferase-based kit from Cambrex.
Compounds to be tested were dissolved in 100% DMSO at a concentration of 10 mM. Subsequent dilutions were performed in 100% DMSO using a Biomek FX Workstation. 5 μL of diluted compound or vehicle (6% DMSO) was distributed to a 384 well plate. 5 μL of substrates (ATP 7.5 μM, MBP 450 ng/μL) diluted in ASK1 buffer (20 mM Tris HCl pH 7.4, 0.001% Brij35, 0.01% BSA, 5 mM MgCl2, 1 mM DL-Dithiothreitol) were added, followed by 5 μL at of human recombinant ASK1 enzyme (22.5 ng/mL) diluted in ASK1 buffer in order to start the reaction. The reaction ran for 180 minutes at 30° C. before the addition of 5 μL of stop solution (Cambrex, #LT23-231). 10 μL of Pklight ATP detection reagent (Cambrex #LT23-233) were added. After 120 min of incubation, luminescence was measured on a Perkin-Elmer Victor 2 spectrofluorimeter. The percentage of inhibition relative to the fluorescence observed in the presence of solvent (1% DMSO) alone was determined. The IC50 values for inhibition were determined in triplicates on at least 2 separate occasions.
As for `O=C(Nc1nc2cccc(NCc3ccco3)n2n1)c1ccccc1` [Example 44, N-{5-[(2-furylmethyl)amino][1,2,4]triazolo[1,5-a]pyridin-2-yl}benzamide], the half-inhibitory concentration (IC50) is 6900 ± 50 nM.

`O=C(Nc1nc2cccc(-c3cn[nH]c3)n2n1)c1ccccc1` [Example 12, N-[5-(1H-pyrazol-4-yl)[1,2,4]triazolo[1,5-a]pyridin-2-yl]benzamide]: the IC50 is 14800 ± 200 nM.

Consider `CCC(C)Nc1cc(Cl)cc2nc(NC(=O)c3ccc(NCCCO)nc3)nn12` (stereo not drawn) [Example 169, N-[5-(sec-butylamino)-7-chloro[1,2,4]triazolo[1,5-a]pyridin-2-yl]-6-[(3-hydroxypropyl)amino]nicotinamide], for which the concentration for half-maximal inhibition (IC50) was determined as 119 ± 29 nM.

On to `O=C(Nc1nc2cc(C(F)(F)F)cc(NCC3CC3)n2n1)c1cccnc1` [Example 89, N-[5-[(cyclopropylmethyl)amino]-7-(trifluoromethyl)[1,2,4]triazolo[1,5-a]pyridin-2-yl]nicotinamide], for which the half-inhibitory concentration (IC50) is 460 ± 50 nM.

On to `CCC(C)Nc1cc(C(F)(F)F)cc2nc(NC(=O)c3cccnc3)nn12` (stereo not drawn) [Example 100, N-[5-(sec-butylamino)-7-(trifluoromethyl)[1,2,4]triazolo[1,5-a]pyridin-2-yl]nicotinamide], for which the IC50 was determined as 56 ± 8 nM.

For `COc1cc(-c2ccc3nc(NC(=O)c4ccc(CN(C)C)cc4)nn3c2)ccc1O` [Example 147, 4-[(dimethylamino)methyl]-N-[6-(4-hydroxy-3-methoxyphenyl)[1,2,4]triazolo[1,5-a]pyridin-2-yl]benzamide], the IC50 was determined as 5500 nM.

Take `COc1cc(-c2ccc3nc(NC(=O)c4ccccc4)nn3c2)ccc1O` [Example 56, N-[6-(4-hydroxy-3-methoxyphenyl)[1,2,4]triazolo[1,5-a]pyridin-2-yl]benzamide hydrochloride]: the IC50 turned out to be 990 ± 40 nM.

As to `O=C(Nc1nc2cccc(NC3CCCOC3)n2n1)c1ccccc1` (stereo not drawn) [Example 81, N-[5-(tetrahydro-2H-pyran-3-ylamino)[1,2,4]triazolo[1,5-a]pyridin-2-yl]benzamide], the IC50 was found to be 1660 ± 50 nM.

Consider `O=C(Nc1nc2cc(Cl)cc(NC3CCCCC3)n2n1)c1cccnc1` [Example 120, N-[7-chloro-5-(cyclohexylamino)[1,2,4]triazolo[1,5-a]pyridin-2-yl]nicotinamide], for which the concentration for half-maximal inhibition (IC50) was 67 ± 12 nM.

On to `COCCN(C)Cc1ccc(C(=O)Nc2nc3cccc(NC4CCCCC4)n3n2)cc1` [Example 130, N-[5-(cyclohexylamino)[1,2,4]triazolo[1,5-a]pyridin-2-yl]-4-{[(2-methoxyethyl)(methyl)amino]methyl}benzamide], for which the IC50 is 531 ± 18 nM.

Take `COC(=O)[C@H]1CC[C@H](Nc2cc(C(F)(F)F)cc3nc(NC(=O)c4cccnc4)nn23)CC1` [Example 90, methyl trans-4-{[2-[(pyridin-3-ylcarbonyl)amino]-7-(trifluoromethyl)[1,2,4]triazolo[1,5-a]pyridin-5-yl]amino}cyclohexanecarboxylate]: the IC50 is 700 ± 100 nM.

With `COCC(=O)Nc1nc2cccc(-c3ccoc3)n2n1` [Example 5, N-[5-(3-furyl)[1,2,4]triazolo[1,5-a]pyridin-2-yl]-2-methoxyacetamide], the concentration for half-maximal inhibition (IC50) was 17000 ± 5000 nM.

With `COc1cc(-c2ccc3nc(NC(=O)c4ccc(CN5CCCCC5)cc4)nn3c2)ccc1O` [Example 144, N-[6-(4-hydroxy-3-methoxyphenyl)[1,2,4]triazolo[1,5-a]pyridin-2-yl]-4-(piperidin-1-ylmethyl)benzamide], the IC50 worked out at 2000 nM.

On to `CN(C)Cc1ccc(C(=O)Nc2nc3cc(C(F)(F)F)cc(NC4CC4)n3n2)cc1` [Example 140, N-[5-(cyclopropylamino)-7-(trifluoromethyl)[1,2,4]triazolo[1,5-a]pyridin-2-yl]-4-[(dimethylamino)methyl]benzamide], for which the IC50 was found to be 1140 nM.

`O=C(Nc1nc2cccc(NC3CCCCCC3)n2n1)c1cccnc1` [Example 61, N-[5-(cycloheptylamino)[1,2,4]triazolo[1,5-a]pyridin-2-yl]nicotinamide dihydrochloride]: the IC50 came out at 180 ± 20 nM.

Regarding `O=C(Nc1nc2cccc(NCC3CCCCC3)n2n1)c1cccnc1` [Example 115, N-{5-[(cyclohexylmethyl)amino][1,2,4]triazolo[1,5-a]pyridin-2-yl}nicotinamide], the IC50 was found to be 519 ± 113 nM.

Regarding `O=C(CCNC(=O)c1ccccc1)Nc1nc2cccc(-c3ccoc3)n2n1` [Example 96, N-(3-{[5-(3-furyl)[1,2,4]triazolo[1,5-a]pyridin-2-yl]amino}-3-oxopropyl)benzamide], the half-inhibitory concentration (IC50) stood at 990 ± 110 nM.

As to `COc1cc(-c2ccc3nc(NC(=O)c4ccc(CN5CCCC5=O)cc4)nn3c2)ccc1O` [Example 146, N-[6-(4-hydroxy-3-methoxyphenyl)[1,2,4]triazolo[1,5-a]pyridin-2-yl]-4-[(2-oxopyrrolidin-1-yl)methyl]benzamide], the IC50 was determined as 138 ± 30 nM.

Take `O=C(Nc1nc2cccc(NC3CCCCC3)n2n1)c1ccc(N2CCOCC2)nc1` [Example 86, N-[5-(cyclohexylamino)[1,2,4]triazolo[1,5-a]pyridin-2-yl]-6-morpholin-4-ylnicotinamide]: the IC50 is 110 ± 50 nM.

For `O=C(Nc1nc2cc(C(F)(F)F)cc(NC3CCCCC3)n2n1)c1cccnc1` [Example 74, N-[5-(cyclohexylamino)-7-(trifluoromethyl)[1,2,4]triazolo[1,5-a]pyridin-2-yl]nicotinamide], the half-inhibitory concentration (IC50) came out at 120 ± 10 nM.

Take `CCC(CO)Nc1cccc2nc(NC(=O)c3ccccc3)nn12` (stereo not drawn) [Example 50, N-(5-{[1-(hydroxymethyl)propyl]amino}[1,2,4]triazolo[1,5-a]pyridin-2-yl)benzamide]: the IC50 is 8000 ± 1000 nM.

With `Cc1ccc(CNc2cccc3nc(NC(=O)c4cccnc4)nn23)o1` [Example 63, N-(5-{[(5-methyl-2-furyl)methyl]amino}[1,2,4]triazolo[1,5-a]pyridin-2-yl)nicotinamide], the IC50 came to 9860 nM.

For the molecule `O=C(Nc1nc2cccc(-c3ccc[nH]3)n2n1)C1CCCC1` [Example 10, N-[5-(1H-pyrrol-2-yl)[1,2,4]triazolo[1,5-a]pyridin-2-yl]cyclopentanecarboxamide], the half-maximal inhibitory concentration (IC50) turned out to be 16000 ± 4000 nM.

`O=C(Nc1nc2cc(C(F)(F)F)cc(NCCCO)n2n1)c1cccnc1` [Example 124, N-[5-[(3-hydroxypropyl)amino]-7-(trifluoromethyl)[1,2,4]triazolo[1,5-a]pyridin-2-yl]nicotinamide]: the IC50 is 197 ± 6 nM.

With `CN(C)Cc1ccc(C(=O)Nc2nc3cccc(NC4CCCCC4)n3n2)cc1` [Example 87, N-[5-(cyclohexylamino)[1,2,4]triazolo[1,5-a]pyridin-2-yl]-4-[(dimethylamino)methyl]benzamide], the IC50 was 5960 nM.

`COc1cc(-c2ccc3nc(NC(=O)c4cccnc4)nn3c2)ccc1O` [Example 66, N-[6-(4-hydroxy-3-methoxyphenyl)[1,2,4]triazolo[1,5-a]pyridin-2-yl]nicotinamide hydrochloride]: the half-inhibitory concentration (IC50) is 260 ± 10 nM.

On to `O=C(Nc1nc2cccc(NCC3CCCO3)n2n1)c1ccccc1` (stereo not drawn) [Example 45, N-{5-[(tetrahydrofuran-2-ylmethyl)amino][1,2,4]triazolo[1,5-a]pyridin-2-yl}benzamide], for which the concentration for half-maximal inhibition (IC50) is 3380 nM.

By IC50 is commonly meant the concentration at which inhibition is half-maximal.

The record behind these values is patent US8263595B2, “Triazolopyridine compounds and their use as ask inhibitors” (Merck Serono SA, priority 2007, dated 2012).
